This is an account of results in ChEMBL document CHEMBL1671629, “Penetration of chlorhexidine into human skin” (Antimicrob Agents Chemother, 2008).

Assay type in all cases: ADME, tissue-based
The subject of data set [1] is Zone of skin. Kind of data set: Drug permeation in deeper <300 micrometer sections of human skin using Franz-cell skin model assessed as compound penetration per mg tissue exposed to 2% wt/vol of compound administered topically measured after 30 mins exposure by HPLC. As to conditions: 0.5 h.
Data set [2] deals with Zone of skin. The data set can be described thus: Drug permeation in top 100 micrometer sections of human skin using Franz-cell skin model assessed as compound penetration per mg tissue exposed to 2% wt/vol of compound administered topically measured after 24 hrs exposure by HPLC.
Data set [3] relates to Zone of skin. Kind of data set: Drug permeation in top 100 micrometer sections of human skin using Franz-cell skin model assessed as compound penetration per mg tissue exposed to 2% wt/vol of compound administered topically measured after 30 mins exposure by HPLC. The following applies: 0.5 h.
Data set [4] deals with Zone of skin. Kind of data set: Drug permeation in deeper <300 micrometer sections of human skin using Franz-cell skin model assessed as compound penetration per mg tissue exposed to 2% wt/vol of compound administered topically measured after 24 hrs exposure by HPLC.
The test system of data set [5] is Zone of skin. Kind of data set: Drug permeation in deeper <300 micrometer sections of human skin using Franz-cell skin model assessed as compound penetration per mg tissue exposed to 2% wt/vol of compound administered topically measured after 2 mins exposure by HPLC.
Data set [6] relates to Zone of skin. The data set can be described thus: Drug permeation in top 100 micrometer sections of human skin using Franz-cell skin model assessed as compound penetration per mg tissue exposed to 2% wt/vol of compound administered topically measured after 2 mins exposure by HPLC.

Regarding `N=C(NCCCCCCNC(=N)NC(=N)Nc1ccc(Cl)cc1)NC(=N)Nc1ccc(Cl)cc1.O=C(O)[C@H](O)[C@@H](O)[C@H](O)[C@H](O)CO`, the Drug uptake in the data set on Zone of skin [1] was less than 0.002 µg; with Zone of skin [4], less than 1 µg; with Zone of skin [5] it was less than 0.002 µg. For the same molecule, the tissue concentration is 7.88 µg/mg in the data set on Zone of skin [2], 0.077 µg/mg in the data set on Zone of skin [3] and 0.157 µg/mg in the data set with Zone of skin [6].
